Common to all, as to assay: NCI tumour cell line growth inhibition, 48 h
The subject of test [1] is COLO 205 colon.
In test [2] the test system is RPMI-8226 leukemia.
For test [3], the system named is A549 NSCLC.
Test [4] has as its system UACC-62 melanoma.
The subject of test [5] is NCI-H522 lung.
Test [6] has as its system MDA-MB-435.
Test [7] relates to HL-60(TB) leukemia.
Test [8] concerns NCI-H226 lung.
In test [9] the test system is HCC-2998 colon.
In test [10] the test system is KM12 colon.

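Protocol summary: plate cells (96-well), add compound at 5 concentrations, incubate 48 h, interpolate endpoints linearly. At the TGI there is no net growth.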 Where only a bound is given, the exact number is not on record here.

On to `C=C[C@]1(C)CC[C@]2(C)C(CC[C@@]3(C)C2C[C@H](O)[C@H](O)[C@@]3(C)O)C1` (stereo not given in full), for which the TGI in test [1], in test [2], in [3], in [4], in test [5] and in test [6] was > 100 µM in each case. In addition, the TGI in test [7], in [8], in [9] and in test [10] was > 100 µM throughout.
On to `COc1ccccc1C(=O)c1c(N2CCCCC2)c(=O)c1=O`, for which the TGI in test [1], in [2], in test [3], in test [4], in test [5] and in test [6] was > 100 µM in each case. For the same molecule, the TGI in test [7], in [8], in test [9] and in test [10] was > 100 µM each time.
As to `CC(=O)N[C@@H](Cc1ccc(O)cn1)C(=O)NCc1ccc2c(c1)OCO2`, the TGI in test [1], in test [2], in test [3], in [4], in [5] and in test [6] was > 100 µM in each case. Also, the TGI in [7], in [8], in [9] and in [10] was > 100 µM in each case.
`COc1cc(C(=O)Nc2nnc(S(N)(=O)=O)s2)cc(OC)c1OC`: the TGI in [1], in test [2], in test [3], in [4], in test [5] and in test [6] was > 100 µM throughout. Further, the TGI in [7], in test [8], in test [9] and in [10] was > 100 µM each time.
As to `CC(=O)N(C(C)=O)n1c(Cc2ccc(Cl)cc2)nn(C(C)=O)c1=O`, the TGI in test [1], in [2], in test [3], in [4], in test [5] and in [6] was > 100 µM in each case. Besides, the TGI in test [7], in [8], in [9] and in test [10] was > 100 µM each time.
Take `COc1cn2c(cc1=O)COc1ccc(-c3ccccc3)cc1-2`: the TGI in [1] is > 100 µM; in test [2], > 100 µM; in test [3], 99.5 µM; in [4], > 100 µM; in test [5], > 100 µM; in test [6], > 100 µM. Further, the TGI in test [7], in test [8], in test [9] and in test [10] was > 100 µM each time.
Consider `c1ccc2c(c1)CC1c3[nH]c4ccccc4c3CCN21` (stereo not given), for which the TGI in [1], in [2], in [3], in [4], in test [5] and in [6] was > 10 µM each time. The TGI in test [7], in test [8], in [9] and in [10] was > 10 µM each time.
Regarding `O=C(Nc1cccc2nsnc12)c1cc2c(cc1Cl)Sc1nccn1S2(=O)=O`, the TGI was determined as 33.3 µM in test [1]; 4.96 µM in test [2]; 56.1 µM in [3]; 17.6 µM in [4]; 32.3 µM in test [5]; 36.5 µM in test [6]. Moreover, the TGI worked out at 3.72 µM in test [7], 55.4 µM in test [8], 11.7 µM in test [9] and 4.65 µM in [10].
Take `COc1ccc(C2CC(c3c(C)nn(-c4ccccc4)c3-c3ccc(C)cc3O)=NN2c2ccccc2)cc1` (stereo not given): the TGI in test [1], in test [2], in test [3], in test [4], in test [5] and in test [6] was > 100 µM throughout. For the same molecule, the TGI in test [7] was > 100 µM; in test [8], > 100 µM; in test [9], > 100 µM; in [10], > 43.7 µM.
As to `CC1=NN(c2ccc(C)cc2)C2(C1)SCC(=O)N2c1nc2ccccc2s1` (stereo not given), the TGI in [1] was 57.9 µM; in [2], 50.1 µM; in [3], > 100 µM; in test [4], 45.6 µM; in test [5], 52.6 µM; in test [6], > 100 µM. Moreover, the TGI in [7] is 36.5 µM; in test [8], 47 µM; in [9], 48.3 µM; in test [10] it was > 100 µM.
Take `O=C1CSC2(CC(/C=C/C=C/c3ccccc3)=NN2c2cccc(S(=O)(=O)O)c2)N1c1nc2ccccc2s1` (stereo not given): the TGI was > 100 µM in [1]; 55 µM in test [2]; > 100 µM in [3]; > 100 µM in test [4]; > 100 µM in [5]; 55.6 µM in test [6]. In addition, the TGI in test [7], in [8], in test [9] and in test [10] was > 100 µM in each case.
In the case of `Cc1ccc(S(=O)(=O)Nn2c(-c3ccccc3)c(C#N)c(-c3ccc([N+](=O)[O-])cc3)c(C#N)c2=O)cc1`, the TGI in test [1] is > 100 µM; in [2], 64.3 µM; in [3], > 100 µM; in [4], > 100 µM; in [5], > 100 µM; in [6], > 100 µM. The TGI in test [7], in test [8], in [9] and in test [10] was > 100 µM throughout.
Take `CC1(C)OC[C@@H](/C=C\CCO[Si](c2ccccc2)(c2ccccc2)C(C)(C)C)N1C(=O)c1ccccc1`: the TGI in [1] was 21.9 µM; in test [2] it was 23.2 µM; in [3], 23.2 µM; in [4], 33.1 µM; in test [5] it was 18.8 µM; in [6], > 100 µM. For the same molecule, the TGI came out at 14.6 µM in test [7], 25.5 µM in test [8], 21.4 µM in test [9] and 34.6 µM in [10].
Regarding `CCCCC[C@H](O)[C@H](C)C=C1SCCCS1`, the TGI in test [1], in test [2], in test [3], in test [4], in [5] and in [6] was > 100 µM throughout. The TGI in [7], in test [8], in [9] and in test [10] was > 100 µM in each case.
Take `CC(C)=CC(=O)O[C@@H]1CC(C)(C)CC2C3=CCC4[C@]56CC[C@](O)(OC5)C(C)(C)C6CC[C@@]4(C)C3(C)CC[C@]21C(=O)O` (stereo not given in full): the TGI is 50.4 µM in test [1]; > 100 µM in test [2]; > 100 µM in [3]; > 100 µM in test [4]; > 100 µM in [5]; > 100 µM in test [6]. The TGI in [7], in test [8], in [9] and in test [10] was > 100 µM in each case.
On to `C=C(CCOC)CCC1CCCCC(=C)C1=O` (stereo not given), for which the TGI in test [1], in test [2], in test [3], in test [4], in test [5] and in test [6] was > 100 µM each time. For the same molecule, the TGI in [7], in [8], in [9] and in [10] was > 100 µM each time.
As for `Cc1cs/c(=N\C(P(=O)(O)O)P(=O)(O)O)n1C`, the TGI in test [1], in [2], in test [3], in test [4], in test [5] and in test [6] was > 100 µM each time. The TGI in test [7], in [8], in test [9] and in test [10] was > 100 µM each time.
With `COc1ccc(CNc2nc(NCc3ccc(OC)cc3)nc(NC3CCCCC3)n2)cc1`, the TGI is 5.35 µM in test [1]; > 100 µM in test [2]; 5.31 µM in test [3]; 9.41 µM in test [4]; 3.39 µM in test [5]; 1.94 µM in test [6]. For the same molecule, the TGI in test [7] is > 100 µM; in test [8] it was 5.71 µM; in test [9] it was 3.74 µM; in [10], 5.47 µM.
For the molecule `COc1ccc(/C=N/Nc2[nH]c(=S)nc3[nH]ncc23)cc1`, the TGI in test [1] was 47.9 µM; in test [2], > 100 µM; in test [3] it was > 100 µM; in [4], > 100 µM; in test [5], 79.9 µM; in test [6], > 100 µM. The TGI in [7], in test [8], in test [9] and in [10] was > 100 µM in each case.
Turning to `O=C1c2ccccc2S(=O)(=O)c2ccccc21`, the TGI in test [1], in [2], in test [3], in [4], in test [5] and in [6] was > 100 µM throughout. The TGI in test [7], in test [8], in [9] and in test [10] was > 100 µM in each case.
`CCCCn1cc(C(=O)O)c(=O)c2c3sccc3ccc21`: the TGI in [1], in test [2], in test [3], in test [4], in test [5] and in test [6] was > 100 µM each time. Further, the TGI in test [7], in test [8], in test [9] and in test [10] was > 100 µM in each case.

(Values after PubChem BioAssay (NCI).)
